From PMC4382154, “Screening of the Pan-African Natural Product Library Identifies Ixoratannin A-2 and Boldine as Novel HIV-1 Inhibitors” (PLoS ONE, 2015)
Where a name gives a salt, the structure may show the parent alone. Read-outs that look alike come from different tables or passages of the source.

Experiments:
HIV-1NL4-3 [1] = test: microbe, parasite or virus in culture; format: cell-based; conditions: for replication of HIV-1NL4-3 in CEM-GXR cells (in words): 0.1 μM; for HIV-1 inhibition in the viral replication assay (in words): up to 100 μM; for EC50: read-out: HIV-1NL4-3 inhibition (EC50)
Method: (§1) CEM-GXR cells are an immortalized CD4+ T-lymphocyte line engineered that naturally express the HIV-1 coreceptor CXCR4 and have been further engineered to express the HIV-1 co-receptor CCR5 and a Tat-driven LTR-GFP expression cassette. As such, intracellular GFP expression indicates HIV-1 infection. Cultures of 10^5 CEM-GXR cells were seeded into 96-well plates with RPMI-1640 media (Sigma) supplemented with penicillin/streptomycin plus 20% fetal calf serum (R20+), infected with HIV-1 at a multiplicity of infection of 0.03 (to achieve 3% infected cells on Day 2), and incubated at 37°C and 5% CO2. 24 hours later, cells were pelleted at 750 g and resuspended in R20+ containing compound or 0.1% DMSO. […] Cells were then incubated at 37°C and 5% CO2 for an additional 72 h. 5,000 cells from each culture were measured for cell toxicity and GFP expression by flow cytometry. Flow cytometry data were analyzed using FlowJo v. 8.8.7 software (FlowJo LLC, Ashland, OR). […] Background GFP expression in uninfected cultures was set at 0.05% GFP-positive cells. For each experiment, all data points were obtained in triplicate. All data are reported as the mean ± s.e.m. from at least 3 independent experiments performed with different virus stocks and/or performed on different days. However, all experiments that compare HIV-1NL4-3 and mutant HIV-1 were performed in parallel. EC50 and CC50 values for each compound were calculated from at least four concentrations. Statistical analyses were performed using Student’s unpaired t test, with a p value < 0.05 plus a Bonferroni correction to adjust for multiple comparisons considered significant.
(§2) To assess the effects of these eight compounds on cell viability and HIV-1 replication, we infected a GFP-reporter CEM CD4+ T cell line (CEM-GXR) with the NL4-3 strain of HIV-1 (HIV-1NL4-3). Briefly, cells were infected with HIV-1NL4-3 at a multiplicity of infection of 0.03 (Day 0), followed by removal of HIV-1 and addition of compound (or 0.1% DMSO vehicle control) 24 hours later (Day 1) and incubation for an additional 72 hours to allow HIV-1 spread (Days 2–4). On Days 2 and/or 4, the percent HIV-1 infected (i.e., GFP-expressing) cells was measured by flow cytometry. Cell viability was assessed by measuring the percentage of cells displaying normal forward- and side-scatter parameters in drug-treated, HIV-1 infected cultures compared to 0.1% DMSO-treated, HIV-1 infected control cultures. […] HIV-1NL4-3 replication was unaffected by the presence of 0.1% DMSO vehicle control (Fig. 2B).

HIV-1Δvpu = HIV-1Δvpu replication in CEM-GXR cells; format: cell-based; conditions: 0.1 μM, Day 4
Method: (§3) HIV-1Δvpu was constructed by digesting plasmid p210-13 3’ Δ-vpu with EcoRI and NheI enzymes. The resulting DNA fragment was then ligated into wild-type pNL4-3 plasmid digested with the same enzymes. HIV-1Δvpu and HIV-1NL4-3 viral stocks were prepared by transfection of HEK-293T cells, as previously described. Patient plasma-HIV-1 RNA sequences were analyzed for resistance mutations using the HIV Drug Resistance Database Genotype Resistance Interpretation Algorithm (hivdb.stanford.edu). Recombinant HIV-1NL4-3 expressing patient-derived HIV-1 sequences harboring resistance mutations to protease and reverse transcriptase inhibitors (HIV-1PR+RT), reverse transcriptase inhibitors (HIV-1RT), and integrase inhibitors (HIV-1INT) were generated by homologous recombination following co-transfection as reported.
as §1
(§4) To investigate the mechanisms by which ixoratannin A-2 and boldine may block HIV-1 replication, we used a previously-reported HIV-1NL4-3 strain lacking the Vpu coding region (HIV-1Δvpu). We also constructed recombinant HIV-1NL4-3 strains harboring protease, reverse transcriptase, and/or integrase sequences of HIV-1 strains from patients who had developed resistance to the protease inhibitor Indinavir (IND), the non-nucleoside reverse transcriptase inhibitor Efavirenz (EFV), and/or the integrase inhibitor Raltegravir (RAL) (denoted HIV-1PR+RT, HIV-1RT, and HIV-1INT, respectively). Re-sequencing of the recombinant viruses confirmed the presence of multiple mutations known to confer resistance to IND, EFV, and/or RAL (Table 2).

HIV-1PR+RT = HIV-1PR+RT replication in CEM-GXR cells; format: cell-based; conditions: 0.1 μM, CEM-GXR cells, Day 4
Method: as §3, §1, §4

HIV-1RT = test: microbe, parasite or virus in culture; format: cell-based; conditions: 0.1 μM, CEM-GXR cells, Day 4
Method: CEM-GXR cells are an immortalized CD4+ T-lymphocyte line engineered that naturally express the HIV-1 coreceptor CXCR4 and have been further engineered to express the HIV-1 co-receptor CCR5 and a Tat-driven LTR-GFP expression cassette. As such, intracellular GFP expression indicates HIV-1 infection [26]. Cultures of 10^5 CEM-GXR cells were seeded into 96-well plates with RPMI-1640 media (Sigma) supplemented with penicillin/streptomycin plus 20% fetal calf serum (R20+), infected with HIV-1 at a multiplicity of infection of 0.03 (to achieve 3% infected cells on Day 2), and incubated at 37°C and 5% CO2. 24 hours later, cells were pelleted at 750 g and resuspended in R20+ containing compound or 0.1% DMSO. […] Cells were then incubated at 37°C and 5% CO2 for an additional 72 h. 5,000 cells from each culture were measured for cell toxicity and GFP expression by flow cytometry. […] Background GFP expression in uninfected cultures was set at 0.05% GFP-positive cells. For each experiment, all data points were obtained in triplicate. All data are reported as the mean ± s.e.m. from at least 3 independent experiments performed with different virus stocks and/or performed on different days. […] EC50 and CC50 values for each compound were calculated from at least four concentrations. Statistical analyses were performed using Student’s unpaired t test, with a p value < 0.05 plus a Bonferroni correction to adjust for multiple comparisons considered significant.

[2] = Cell toxicity in HIV-1 infected CEM-GXR cultures (forward/side scatter); format: cell-based; conditions: human, HIV-1NL4-3-infected CEM-GXR cells (CD4+ T-lymphocyte line), Day 4
Method: as §1, §2

HIV-1NL4-3 [3] = test: HIV-1 replication assay in PBMCs (p24Gag ELISA); format: cell-based; conditions: 10 μM, Day 12
Method: PBMCs from HIV-1 negative subjects, purchased commercially (StemCell Technologies, Vancouver, Canada), were maintained in RPMI-1640 media (Sigma) supplemented with penicillin/streptomycin plus 10% fetal calf serum (R10+). 72 h prior to viral infection, PBMCs were stimulated by addition of 5 μg/mL phytohaemaglutanin (PHA) (Day 0) and maintained in R10+ medium supplemented with 100 units/mL human IL-2. At Day 3 following cellular activation, 3x10^5 cells were infected with HIV-1NL4-3 at a multiplicity of infection of 0.003 (0.3% infected cells) and incubated at 37°C for 6h, followed by wash and re-suspension in fresh R10+ medium supplemented with 100 units/mL human IL-2 and with or without compounds at defined concentrations. Culture supernatants were collected and replaced with fresh medium supplemented with human IL-2 every 3 days (i.e., Days 6, 9, and 12) with or without fresh compounds. Viral replication at day 12 was monitored by measuring cell culture supernatant levels of p24^Gag by ELISA (XpressBio, Frederick, MD) following manufacturer’s instructions.

[4] = PBMC cytotoxicity (ViaCount Assay); format: cell-based; conditions: human, PHA-activated PBMCs; Day 5, ViaCount
Method: Cytotoxicity was determined by ViaCount Assay (Millipore). Briefly, Day 3 PHA-activated PBMCs (3*10^5) were cultured in R10+ supplemented with 100 units/mL human IL-2 in the presence of 0.1% DMSO or compounds at defined concentrations. At Day 5, 15 μL of each PBMC culture was mixed with Guava ViaCount Reagent at a 1:10 dilution. Data were collected using a Guava EasyCyte HT Flow Cytometer (Millipore).

[5] = system: HCV J4(1b)/JFH1(2a) chimera; test: HCV replication assay in Huh-7.5 cells (NS5A flow cytometry); format: cell-based; conditions: Hepatitis C virus, Huh7.5, 72 h, read-out: inhibition of HCV replication
Method: The intergenotypic chimeric HCV used in this study—Bi-Gluc-J4(1b)/JFH1(2a) containing cell culture adaptive mutations in NS2 (T2996C) and NS3 (A4827T)—was previously described and subsequently modified to express Gaussia luciferase in the first cistron. HCV stocks used for infection were generated by electroporation of in vitro transcribed RNA into Huh-7.5.1 cells and pooling of supernatants harvested between 60–96 hr post-electroporation. HCV infectivity was determined by limiting dilution assay as previously described.
HCV cell culture was performed as described previously. Briefly, 4*10^4 Huh-7.5 cells were seeded into 24-well plates and incubated at 37°C and 5% CO2 overnight. Cells were then infected with HCV (multiplicity of infection = 0.3) for 6 hours, followed by removal of HCV and incubation with fresh medium containing compounds at stated concentrations. Cultures were then incubated for 72 hours, with no more than 0.1% DMSO present in culture medium. Cells were then trypsinized, resuspended in culture medium, and stained with the 9E10 alexa-fluor-conjugated antibody to NS5A [27]. Cells were fixed and analyzed for NS5A fluorescence by flow cytometry, and data were analyzed using FlowJo software. […] For each culture, NS5A fluorescence was determined as the percent gated cells relative to percent gated cells in infected cultures plus 0.1% DMSO. All experiments were performed in at least duplicate in at least two independent experiments.
We therefore assessed the effects of ixoratannin A-2, boldine, and BIT-225 on replication of HCV, which also encodes a viral ion channel and protease. Using an established cell culture system, Huh-7.5 cells were infected with an intergenotypic chimera between the J4 (genotype 1b) and JFH1 (genotype 2a) strain of HCV for 6 hours, followed by incubation with fresh medium containing compounds at defined concentrations. Infected cells were then incubated for an additional 72 hours. NS5A expression, a marker of HCV infection, was then detected by flow cytometry.

in vitro = format: cell-based; conditions: human
[6] = system: monocyte derived macrophages; conditions: cited from earlier work
SupT1 and CEM-SS cells = conditions: cited from earlier work
[7] = system: Madin-Darby bovine kidney cells; parameters: method as in PMID 20832370; conditions: read-out: CC50 in bovine viral diarrhea virus-infected Madin-Darby bovine kidney cells; cited from earlier work
CEM-GXR cells = test: Cell toxicity in HIV-1 infected CEM-GXR cultures (forward/side scatter); format: cell-based; conditions: HIV-1NL4-3-infected CEM-GXR cells, Day 4
Method: as §1, §2

HIV-1INT = HIV-1INT replication in CEM-GXR cells; format: cell-based; conditions: 0.1 μM, CEM-GXR cells, Day 4
Method: as §3, §1, §4

[8] = Human immunodeficiency virus 1, 96 h, CEM-GXR cells, Day 4

| SMILES | replication of HIV-1NL4-3 in CEM-GXR cells (in words) (HIV-1NL4-3 [1]; Day 4) | replication of HIV-1Δvpu in CEM-GXR cells (in words) (HIV-1Δvpu) | CC50 at 72 h [2] | HIV-1 inhibition in the viral replication assay (in words) (HIV-1NL4-3 [1]; CEM-GXR cells) | EC50 (HIV-1NL4-3 [1]; [8]) | also measured |
| --- | --- | --- | --- | --- | --- | --- |
| O=C1Nc2ccc(Cl)cc2[C@@](C#CC2CC2)(C(F)(F)F)O1 [EFV, Efavirenz, reference compound] | inhibited | inhibited |  |  |  | HIV-1PR+RT replication fold higher than HIV-1NL4-3 (HIV-1PR+RT): 2.6 fold; HIV-1RT replication fold greater than HIV-1NL4-3 (HIV-1RT): 3.4 fold |
| Cn1cc(-c2cccc3cc(C(=O)NC(=N)N)ccc23)cn1 [BIT-225, reference compound] |  |  | 10.7 µM |  |  | reduced HIV-1 replication in PBMCs (p24Gag) (HIV-1NL4-3 [3]): 31.8%; CC50 [4]: 12.8 µM; inhibition at 30 µM [5]: 37.5%; CC50 at 72 h (in vitro): 52.9 µM; CC50 [6]: 167 to 284 µM; CC50 (SupT1 and CEM-SS cells): 32 to 67 µM; CC50 [7]: 11.6 µM |
| COc1cc2ccc3c(OC)c(O)ccc3c2c(OC)c1O [PA, 1,5,7-trimethoxyphenanthrene-2,6-diol] |  |  | < 30 µM |  |  | CC50 (CEM-GXR cells): 26.8 µM |
| O=C1OCc2cc3cccc(OC4OC(CO)C(O)C(O)C4O)c3c(O)c21 (stereo not drawn) [geshoidin] |  |  | > 10 µM | did not inhibit HIV-1 |  | EC50 (HIV-1NL4-3 [1]; Human immunodeficiency virus 1, CEM-GXR, 96 h): > 100 µM |
| O=C(O[C@@H]1Cc2c(O)cc(O)cc2O[C@@H]1c1ccc(O)c(O)c1)c1cc(O)c(O)c(O)c1 [ECG, epicatechin gallate] |  |  | > 100 µM | did not observe antiviral activity | > 100 µM |  |
| Cc1nnc(C(=O)NC(C)(C)c2nc(C(=O)NCc3ccc(F)cc3)c(O)c(=O)n2C)o1 [RAL, Raltegravir, reference compound] | inhibited | inhibited |  |  |  | HIV-1INT replication fold higher than HIV-1NL4-3 (HIV-1INT): 1.7 fold |
| CC(C)(C)NC(=O)[C@@H]1CN(Cc2cccnc2)CCN1C[C@@H](O)C[C@@H](Cc1ccccc1)C(=O)N[C@H]1c2ccccc2C[C@H]1O [IND, Indinavir, reference compound] | inhibited | inhibited |  |  |  | HIV-1PR+RT replication fold higher than HIV-1NL4-3 (HIV-1PR+RT): 2.7 fold |
| O=c1oc2c(O)c(O)cc3c(=O)oc4c(O)c(O)cc1c4c23 [EA, ellagic acid] |  |  | 52.3 µM | did not observe these activities | > 100 µM |  |
| CC(N)C12CC3CC(CC(C3)C1)C2 (stereo not drawn) [rimantadine, rimantadine hydrochloride, reference compound] |  |  |  |  |  | inhibition at 50 µM [5]: 40.7% |
| CC(=O)c1c(O)cc(OC2OC(O)C(O)C(O)C2O)c(-c2c(C)cc(O)c3c2C(=O)c2cccc(O)c2C3=O)c1O (stereo not drawn) [2MA, 1-(3-acetyl-2,4-dihydroxy-6-((3,4,5,6-tetrahydroxytetrahydro-2H-pyran-2-yl)oxy)phenyl)-4,5-dihydroxy-2-methylanthracene-9,10-dione] |  |  | 50.9 µM | did not inhibit HIV-1 | > 100 µM |  |
